Source: ChEMBL document CHEMBL1201862, “PubChem BioAssay data set” (2004)
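How tested: cells in 96-well plates exposed to compound for 48 hours at five concentrations. GI50 marks 50% less growth.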 Activity calls are given as the source filed them. Cut-off read from the data, not from the text of the source: active = GI50 up to about 1.1 µM and inactive = higher.

Tests used:
Experiment in all cases: NCI-60 cell line screen, 48 h
786-0 = system: 786-0
A498 = system: A498
A549 = system: A549
DU-145 = system: DU-145
HCT-15 = system: HCT-15
K562 = system: K562
LOX IMVI = system: LOX IMVI
MDA-N = system: MDA-N
MOLT-4 = system: MOLT-4
NCI-H522 = system: NCI-H522
NCI/ADR-RES = system: NCI/ADR-RES
OVCAR-3 = system: OVCAR-3
SF-268 = system: SF-268
SF-295 = system: SF-295
SR = system: SR
UACC-62 = system: UACC-62
HL-60 = system: HL-60
RPMI-8226 = system: RPMI-8226
TK-10 = system: TK-10
SF-539 = system: SF-539

Compound	GI50 (786-0)	GI50 (A498)	GI50 (A549)	GI50 (DU-145)	GI50 (HCT-15)	GI50 (K562)	GI50 (LOX IMVI)	GI50 (MDA-N)	GI50 (MOLT-4)	GI50 (NCI-H522)	GI50 (NCI/ADR-RES)	GI50 (OVCAR-3)	GI50 (SF-268)	GI50 (SF-295)	GI50 (SR)	GI50 (UACC-62)	GI50 (HL-60)	GI50 (RPMI-8226)	GI50 (TK-10)	GI50 (SF-539)
Cc1cc(-c2nc3ccccc3s2)ccc1NC(=O)[C@H](C)N	11.1 µM (inactive)	14.4 µM (inactive)	13.7 µM (inactive)	15.3 µM (inactive)	14.1 µM	6.95 µM (inactive)	5.06 µM (inactive)	10.4 µM (inactive)	18.2 µM (inactive)	24.2 µM (inactive)	18.3 µM (inactive)	11.4 µM (inactive)	18.3 µM (inactive)	15.3 µM (inactive)	5.2 µM (inactive)	14.8 µM (inactive)				
O=Cc1cc([N+](=O)[O-])no1		> 100 µM (inactive)		80.5 µM (inactive)	36.8 µM	4.85 µM (inactive)	7.13 µM (inactive)	23.7 µM (inactive)	18.7 µM (inactive)		52.4 µM (inactive)	40.6 µM (inactive)		32.5 µM (inactive)	31.4 µM (inactive)	19.7 µM (inactive)	15.9 µM (inactive)	16.9 µM (inactive)	> 100 µM (inactive)	
Clc1ccc(/N=c2\oc3ccccc3cc2-c2nc3ccccc3[nH]2)c(Cl)c1				> 100 µM (inactive)	> 100 µM	> 100 µM (inactive)	> 100 µM (inactive)	83.6 µM (inactive)	> 100 µM (inactive)	78.5 µM (inactive)	> 100 µM (inactive)	> 100 µM (inactive)	24.2 µM (inactive)	> 100 µM (inactive)	> 100 µM (inactive)	24.6 µM (inactive)	> 100 µM (inactive)	> 100 µM (inactive)	23.8 µM (inactive)	
CSc1nc(Cl)c2c(n1)Sc1nc3ccccc3n1C2O (stereo not drawn)	2.15 µM (inactive)	> 79.1 µM (inactive)	7.38 µM (inactive)	11.4 µM (inactive)	3.4 µM	3.71 µM (inactive)	0.861 µM (active)	2.86 µM (inactive)	3.48 µM (inactive)	2.73 µM (inactive)	3.27 µM (inactive)	5.3 µM (inactive)	5.25 µM (inactive)	21.3 µM (inactive)		3.42 µM (inactive)		2.85 µM (inactive)	7.13 µM (inactive)	1.83 µM (inactive)
CCOC(=O)C(Cc1cn(C(C)=O)c2ccccc12)P(=O)(OCC)OCC (stereo not drawn)			> 100 µM (inactive)	> 100 µM (inactive)	> 100 µM	> 100 µM (inactive)	> 100 µM (inactive)	> 100 µM (inactive)	> 100 µM (inactive)	> 100 µM (inactive)	> 100 µM (inactive)	> 100 µM (inactive)		> 100 µM (inactive)	> 100 µM (inactive)			> 100 µM (inactive)	> 100 µM (inactive)	
Cc1nnc2n1N=C(c1cc(F)c(Cl)cc1Cl)/C(=C/c1ccc(Cl)cc1)S2	16.8 µM (inactive)	19.1 µM (inactive)	18 µM (inactive)	17.1 µM (inactive)	13.8 µM	17.5 µM (inactive)	9.33 µM (inactive)	15.8 µM (inactive)	9.91 µM (inactive)	20.7 µM (inactive)	11.8 µM (inactive)	12.7 µM (inactive)	41.8 µM (inactive)	13.4 µM (inactive)		15 µM (inactive)	26.4 µM (inactive)	15.5 µM (inactive)	28.7 µM (inactive)	25.9 µM (inactive)
CCC/C(Cl)=N\OC(=O)Nc1ccc(OC(F)(F)F)cc1	12.3 µM (inactive)	23.8 µM (inactive)	20.2 µM (inactive)	18 µM (inactive)	2.42 µM	2.42 µM (inactive)	2.72 µM (inactive)	13.5 µM (inactive)	1.86 µM (inactive)	1.08 µM (active)	6.98 µM (inactive)	11.3 µM (inactive)	24.7 µM (inactive)	16.3 µM (inactive)		18.8 µM (inactive)	3.25 µM (inactive)	2.11 µM (inactive)	3.3 µM (inactive)	16.7 µM (inactive)
O=c1[nH]c(=O)n(COCc2ccccc2)cc1Nc1ccc(Br)cc1	> 100 µM (inactive)	> 100 µM (inactive)	> 100 µM (inactive)	> 100 µM (inactive)	> 100 µM	> 100 µM (inactive)	> 100 µM (inactive)	> 100 µM (inactive)	> 100 µM (inactive)		> 100 µM (inactive)	> 100 µM (inactive)	28.5 µM (inactive)	44.5 µM (inactive)	> 100 µM (inactive)	> 100 µM (inactive)	> 100 µM (inactive)	> 100 µM (inactive)		
COC1=CC(=O)c2nc3ccccc3c3ccnc1c23	3.64 µM (inactive)		1.12 µM (inactive)	3.25 µM (inactive)	0.721 µM	3.37 µM (inactive)	0.565 µM (active)	0.448 µM (active)	4.01 µM (inactive)	2.22 µM (inactive)	3.71 µM (inactive)	2.04 µM (inactive)	3.94 µM (inactive)	4.48 µM (inactive)	1.56 µM (inactive)	1.07 µM (active)	2.38 µM (inactive)	1.83 µM (inactive)	19.3 µM (inactive)	2.92 µM (inactive)
CC1=CC[C@H](C[C@H](C#CCCCC2OCCO2)O[Si](C(C)C)(C(C)C)C(C)C)C(=O)CC1	> 100 µM (inactive)	> 100 µM (inactive)	> 100 µM (inactive)	> 100 µM (inactive)	> 100 µM	> 100 µM (inactive)	> 100 µM (inactive)	> 100 µM (inactive)	> 100 µM (inactive)		> 100 µM (inactive)	> 100 µM (inactive)	> 100 µM (inactive)	> 100 µM (inactive)	> 100 µM (inactive)	> 100 µM (inactive)		> 100 µM (inactive)	> 100 µM (inactive)	
CC1(C)N=C(N)N=C(N)N1c1cccc(OCc2cccc([N+](=O)[O-])c2)c1	5.78 µM (inactive)	99.5 µM (inactive)	4.18 µM (inactive)	> 38.5 µM (inactive)	> 100 µM	0.75 µM (active)	9.27 µM (inactive)	3.29 µM (inactive)	1.22 µM (inactive)	8.91 µM (inactive)	> 100 µM (inactive)	22.9 µM (inactive)	9.75 µM (inactive)	> 55.7 µM (inactive)		6.11 µM (inactive)	9.95 µM (inactive)	32.7 µM (inactive)	18.7 µM (inactive)	17.6 µM (inactive)
Cc1ccc(NC(=O)CC(=O)n2nc(C)c(/N=N/c3ccc(S(=O)(=O)CCOS(=O)(=O)O)cc3)c2C)cc1	> 100 µM (inactive)	> 100 µM (inactive)	> 100 µM (inactive)	> 100 µM (inactive)	> 10 µM	> 100 µM (inactive)	> 100 µM (inactive)	> 100 µM (inactive)	> 100 µM (inactive)	> 100 µM (inactive)	> 100 µM (inactive)	> 100 µM (inactive)	> 100 µM (inactive)	97.1 µM (inactive)		> 100 µM (inactive)	> 100 µM (inactive)	> 100 µM (inactive)	> 100 µM (inactive)	> 100 µM (inactive)
